Common to all, as to type: cell-based
Assay [1] has as its system Ly7 DLBCL cells. Nature of the assay: Growth inhibition of DLBCL cells, Ly7. Here is the method:
(§1) 50,000 cells per well were treated for 48 hours with different concentrations of the compounds in 96 well plates, using DMSO as a control. Then, viability was determined with Cell Titer Blue™ (Promega) and growth inhibition was calculated as the percentage of viable cells with respect to cells treated with DMSO alone. GI50 values were determined by dose-response curves.
(§2) 293T cells were grown in Dulbecco's modified Eagles medium supplemented with 10% fetal bovine serum (FBS) (Gemini Bio-Products, Woodland, Calif.) and 1% penicillin-streptomycin. DLBCL cell lines OCI-Ly1, OCI-Ly1-B50, OCI-Ly7, OCI-Ly10 and OCI-Ly19 were grown in 80% Iscove's medium, 20% FBS and penicillin G/streptomycin. DLBCL cell lines Toledo, Farage, SU-DHL4, DOHH-2, SC-1, RCK8, TMD8, HBL-1, Ly3, Karpas 422 and SU-DHL6 were cultured in 90% RPMI medium, 10% FBS, 2 mM glutamine, 10 mM Hepes and penicillin G/streptomycin. All cell lines were cultured at 37° C. in a humidified atmosphere of 5% CO2.

For assay [2], the system named is SUDHL6 DLBCL cells. The experiment in a line: Growth inhibition of DLBCL cells, SUDHL6. Conditions: Homo sapiens, SU-DHL-6. The procedure:
as §1, §2

Assay [3] deals with Toledo DLBCL cells. The experiment in a line: Growth inhibition of DLBCL cells, Toledo. As to conditions: Homo sapiens. The procedure:
as §1, §2

Assay [4] has as its system Ly3 DLBCL cells. The experiment in a line: Growth inhibition of DLBCL cells, Ly3. As to conditions: Table 2; BCL-6 dependent; 48 hours. The procedure: as §1, §2
Assay [5] concerns Ly10 DLBCL cells. The experiment in a line: Growth inhibition of DLBCL cells, Ly10. As to conditions: Table 2, BCL-6 dependent, 48 hours. Here is the method: as §1, §2
Assay [6] has as its system Karpas 422 DLBCL cells. Nature of the assay: Growth inhibition of DLBCL cells, Karpas 422. As to conditions: Homo sapiens, Table 2, BCL-6 independent, 48 hours, read-out: GI50 Karpas 422. The procedure:
as §1, §2

Assay [7] concerns Ly1B50 DLBCL cells. The experiment in a line: Growth inhibition of DLBCL cells, Ly1B50. As to conditions: Table 2; BCL-6 independent; 48 hours. The procedure: as §1, §2
[8] abbreviates: Table 10, BCL6 dependent, read-out: GI50 SUDHL6.
[9] abbreviates: Table 2, BCL-6 dependent, 48 hours, read-out: GI50 SUDH6.
Where [10] appears, read: 48 h, Table 2, BCL-6 independent.

Molecules are shown by their SMILES. Where two headings read alike, the source gives them in different places.

As for `Cc1ccc(COC(=O)Cn2c(=O)oc3cc(Cl)ccc32)cc1` [Compound 333], the GI50 in assay [1] (Table 10, BCL6 dependent) is > 125 µM; in assay [2] (setting [8]), > 125 µM; in assay [3] (Table 10, BCL6 independent) it was > 125 µM.

Take `Cc1cccc(COC(=O)Cn2c(=O)oc3cc(Cl)ccc32)c1` [Compound 334]: the 50% growth inhibitory concentration (GI50) was > 125 µM in assay [1] (Table 10, BCL6 dependent); > 125 µM in assay [2] (setting [8]); > 125 µM in assay [3] (Table 10, BCL6 independent).

For `O=C(Cn1c(=O)oc2cc(Cl)ccc21)OCc1ccc(C(F)(F)F)cc1` [Compound 339], the GI50 is > 125 µM in assay [1] (Table 10, BCL6 dependent); > 125 µM in assay [2] (setting [8]); > 125 µM in assay [3] (Table 10, BCL6 independent).

As for `C[C@@H](OC(=O)Cn1c(=O)oc2cc(Cl)ccc21)c1ccccc1` [Compound 341], the GI50 is > 125 µM in assay [1] (Table 10, BCL6 dependent); > 125 µM in assay [2] (setting [8]); > 125 µM in assay [3] (Table 10, BCL6 independent).

Turning to `COc1ccc2[nH]c(SCc3ccccc3)nc2c1` [Compound 1059], the GI50 was > 125 µM in assay [1] (Table 13, BCL6 dependent); > 125 µM in assay [2] (Table 13, BCL6 dependent, read-out: GI50 SUDHL6); > 125 µM in assay [3] (Table 13, BCL6 independent).

For the compound `O=C(O)CCN1C(=O)/C(=C2/C(=O)Nc3c(Cl)cc(Cl)cc32)SC1=S` [Compound 1093, (Z)-3-(5-(5,7-Dichloro-2-oxoindolin-3-ylidene)-4-oxo-2-thioxothiazolidin-3-yl)propanoic acid], the GI50 in assay [4] was > 40 µM; in assay [1] (48 h, Table 2, BCL-6 dependent), 30 ± 9 µM; in assay [5] it was 21 ± 12 µM; in assay [2] (setting [9]) it was > 40 µM; in assay [6], > 40 µM; in assay [3] (setting [10]), > 40 µM. The GI50 in assay [7] was > 40 µM.

As for `Cc1cc(Cl)cc2c1NC(=O)/C2=C1\SC(=S)N(CCC(=O)O)C1=O` [Compound 1095, (Z)-3-(5-(5-Chloro-7-methyl-2-oxoindolin-3-ylidene)-4-oxo-2-thioxothiazolidin-3-yl)propanoic acid], the GI50 is > 40 µM in assay [4]; > 40 µM in assay [1] (48 h, Table 2, BCL-6 dependent); > 40 µM in assay [5]; > 40 µM in assay [2] (setting [9]); > 40 µM in assay [6]; > 40 µM in assay [3] (setting [10]). In addition, in assay [7], the GI50 was > 40 µM.

For `Cc1ccc2c(c1)/C(=C1/SC(=S)N(CCC(=O)O)C1=O)C(=O)N2` [Compound 1097, (Z)-3-(5-(5-Methyl-2-oxoindolin-3-ylidene)-4-oxo-2-thioxothiazolidin-3-yl)propanoic acid], the GI50 was > 40 µM in assay [4]; > 40 µM in assay [1] (48 h, Table 2, BCL-6 dependent); 18 ± 8 µM in assay [5]; > 40 µM in assay [2] (setting [9]); > 40 µM in assay [6]; > 40 µM in assay [3] (setting [10]). The GI50 in assay [7] is > 40 µM.

In the case of `COc1cc(Br)cc2c1NC(=O)/C2=C1\SC(=S)N(CCC(=O)O)C1=O` [Compound 1113, (Z)-3-(5-(5-Bromo-7-methoxy-2-oxoindolin-3-ylidene)-4-oxo-2-thioxothiazolidin-3-yl)propanoic acid], the 50% growth inhibitory concentration (GI50) was > 40 µM in assay [4]; 12 ± 7 µM in assay [1] (48 h, Table 2, BCL-6 dependent); > 40 µM in assay [5]; > 40 µM in assay [2] (setting [9]); > 40 µM in assay [6]; > 40 µM in assay [3] (setting [10]). For the same compound, the GI50 in assay [7] is > 40 µM.

As for `O=C(O)CCN1C(=O)/C(=C2/C(=O)Nc3ccc(F)cc32)SC1=S` [Compound 1115, (Z)-3-(5-(5-Fluoro-2-oxoindolin-3-ylidene)-4-oxo-2-thioxothiazolidin-3-yl)propanoic acid], the GI50 is 22 ± 9 µM in assay [4]; 24 ± 6 µM in assay [1] (48 h, Table 2, BCL-6 dependent); 34 ± 3 µM in assay [5]; 26 ± 7 µM in assay [2] (setting [9]); > 40 µM in assay [6]; > 40 µM in assay [3] (setting [10]). The GI50 in assay [7] is > 40 µM.

For the compound `O=C(O)CCN1C(=O)/C(=C2/C(=O)Nc3c(F)cccc32)SC1=S` [Compound 1117, (Z)-3-(5-(7-Fluoro-2-oxoindolin-3-ylidene)-4-oxo-2-thioxothiazolidin-3-yl)propanoic acid], the concentration for 50% growth inhibition (GI50) in assay [4] is 21 ± 4 µM; in assay [1] (48 h, Table 2, BCL-6 dependent), 36 ± 1 µM; in assay [5], > 40 µM; in assay [2] (setting [9]), 25 ± 4 µM; in assay [6], > 40 µM; in assay [3] (setting [10]), > 40 µM. In assay [7], the GI50 was > 40 µM.

For the compound `O=C(O)CCN1C(=O)/C(=C2/C(=O)Nc3ccc(Br)cc32)SC1=S` [Compound 1165, (Z)-3-(5-(5-Bromo-2-oxoindolin-3-ylidene)-4-oxo-2-thioxothiazolidin-3-yl)propanoic acid], the GI50 in assay [4] was 17 ± 6 µM; in assay [1] (48 h, Table 2, BCL-6 dependent), > 40 µM; in assay [5], 25 ± 9 µM; in assay [2] (setting [9]) it was > 40 µM; in assay [6], > 40 µM; in assay [3] (setting [10]) it was > 40 µM. Also, the GI50 in assay [7] was > 40 µM.

As for `O=C(O)CCN1C(=O)/C(=C2/C(=O)Nc3c(Cl)cccc32)SC1=S` [Compound 1167, (Z)-3-(5-(7-Chloro-2-oxoindolin-3-ylidene)-4-oxo-2-thioxothiazolidin-3-yl)propanoic acid], the GI50 in assay [4] is > 40 µM; in assay [1] (48 h, Table 2, BCL-6 dependent), 22 ± 1 µM; in assay [5], 24 ± 2 µM; in assay [2] (setting [9]), 29 ± 1 µM; in assay [6], > 40 µM; in assay [3] (setting [10]), > 40 µM. Further, the GI50 in assay [7] was > 40 µM.

With `O=C(O)CCN1C(=O)/C(=C2/C(=O)Nc3ccc([N+](=O)[O-])cc32)SC1=S` [Compound 1169, (Z)-3-(5-(5-Nitro-2-oxoindolin-3-ylidene)-4-oxo-2-thioxothiazolidin-3-yl)propanoic acid], the GI50 in assay [4] was 29 ± 5 µM; in assay [1] (48 h, Table 2, BCL-6 dependent), 28 ± 7 µM; in assay [5] it was 20 ± 10 µM; in assay [2] (setting [9]), 30 ± 3 µM; in assay [6] it was 27 ± 8 µM; in assay [3] (setting [10]) it was > 40 µM. Also, the GI50 in assay [7] was > 40 µM.

As for `O=C(O)CCN1C(=O)/C(=C2/C(=O)Nc3ccccc32)SC1=S` [Compound 2001, (Z)-3-(4-Oxo-5-(2-oxoindolin-3-ylidene)-2-thioxothiazolidin-3-yl)propanoic acid], the GI50 in assay [4] is > 40 µM; in assay [1] (48 h, Table 2, BCL-6 dependent), > 40 µM; in assay [5] it was > 40 µM; in assay [2] (setting [9]) it was > 40 µM; in assay [6], > 40 µM; in assay [3] (setting [10]) it was > 40 µM. The GI50 in assay [7] was > 40 µM.

Consider `CCOC(=O)CCN1C(=O)/C(=C2/C(=O)Nc3ccc(Cl)cc32)SC1=S` [Compound 2003, (Z)-Ethyl 3-(5-(5-chloro-2-oxoindolin-3-ylidene)-4-oxo-2-thioxothiazolidin-3-yl)propanoate], for which the GI50 in assay [4] is > 6 µM; in assay [1] (48 h, Table 2, BCL-6 dependent), > 6 µM; in assay [5] it was > 6 µM; in assay [2] (setting [9]), > 6 µM; in assay [6] it was > 6 µM; in assay [3] (setting [10]) it was > 6 µM. The GI50 in assay [7] was > 6 µM.

As to `O=C(O)CCN1C(=O)/C(=C2/C(=O)Nc3ccc(I)cc32)SC1=S` [Compound 2005, (Z)-3-(5-(5-Iodo-2-oxoindolin-3-ylidene)-4-oxo-2-thioxothiazolidin-3-yl)propanoic acid], the GI50 in assay [4] is > 40 µM; in assay [1] (48 h, Table 2, BCL-6 dependent), > 40 µM; in assay [5] it was 21 ± 2 µM; in assay [2] (setting [9]), 25 ± 6 µM; in assay [6], > 40 µM; in assay [3] (setting [10]) it was > 40 µM. In addition, the GI50 in assay [7] is > 40 µM.

With `O=C(O)CCN1C(=O)C(C2(O)C(=O)Nc3ccc(F)cc32)SC1=S` (stereo not shown) [Compound 2021], the GI50 in assay [4] is > 40 µM; in assay [1] (Table 2, BCL-6 dependent, 48 hours) it was > 40 µM; in assay [5], > 40 µM; in assay [2] (setting [9]), > 40 µM; in assay [6] it was > 40 µM; in assay [3] (Table 2, BCL-6 independent, 48 hours) it was > 40 µM. Moreover, the GI50 in assay [7] was > 40 µM.

The term GI50 denotes the concentration giving 50% growth inhibition.

For the origin of these results see US9943506B2, “BCL6 inhibitors as anticancer agents” (Cornell University, priority 2013, dated 2018).
